The source made the active and inactive calls.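 Rule for the calls: active = more than half of replicate measurements showing over 20% loss of kinase signal relative to plate controls; inconclusive = some but at most half of replicates over 20% loss; inactive = no replicate over 20% signal loss.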

Among the data in PubChem BioAssay AID463203 (Broad Institute, 2010) are AC50 values, retold here.

The experiment has as its target Glycogen synthase kinase-3 alpha (Homo sapiens) (UniProt P49840). Description: concentration-response blocking of human GSK3A – biochemical, luminescence, cell-free homogeneous, retest, dose response (AID 463203). As to conditions: GSK-3 alpha enzyme, ADP-Glo luminescence, 60 min. A general note: ADP-Glo turns the ADP formed in a reaction into a luminescent signal.

Sequence of Glycogen synthase kinase-3 alpha (Homo sapiens) (P49840 whole entry, looked up): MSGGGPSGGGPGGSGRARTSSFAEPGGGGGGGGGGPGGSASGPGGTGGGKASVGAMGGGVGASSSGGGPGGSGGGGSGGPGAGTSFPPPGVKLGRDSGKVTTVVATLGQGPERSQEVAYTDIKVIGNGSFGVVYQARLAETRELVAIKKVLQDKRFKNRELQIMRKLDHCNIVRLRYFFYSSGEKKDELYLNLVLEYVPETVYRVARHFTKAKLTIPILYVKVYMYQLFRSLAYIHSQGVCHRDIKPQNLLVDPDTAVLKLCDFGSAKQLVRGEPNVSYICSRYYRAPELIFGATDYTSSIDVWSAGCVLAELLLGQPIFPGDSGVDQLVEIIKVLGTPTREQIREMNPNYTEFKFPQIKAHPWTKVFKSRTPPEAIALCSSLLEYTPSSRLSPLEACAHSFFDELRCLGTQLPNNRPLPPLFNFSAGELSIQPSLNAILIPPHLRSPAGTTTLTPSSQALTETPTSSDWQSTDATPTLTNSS

A word on the AC50: it is the midpoint of the concentration-response curve, whichever way the signal moves. On to `CC(=O)c1sc(NC(=O)CN2C(=O)C3CCCCC3C2=O)nc1-c1ccccc1` (configuration not stated), for which the concentration at half-maximal activity (AC50) is 8.54 µM.

As for `CCCCc1ccc(NC(=O)N[C@H](C(=O)O)C(C)CC)cc1` (some centres not stated), the AC50 was > 30 µM (inactive).

Take `Cc1c(C(=O)N2CCOCC2)oc2ccc(S(=O)(=O)N3CCCC3)cc12`: the AC50 is > 30 µM (inactive).

Turning to `Cn1c(=O)c2[nH]cnc2n(-c2ccccc2)c1=O`, the AC50 was > 30 µM (inactive).

Consider `COc1cc2c(cc1OC)C(C)N(C(=O)Cn1ncc3c1-c1cc(C)ccc1OC3)CC2` (configuration not stated), for which the AC50 is > 30 µM (inactive).

For the compound `COc1ccc(C=O)cc1OS(=O)(=O)c1ccccc1[N+](=O)[O-]`, the AC50 was > 30 µM (inactive).

Consider `CO/N=C/c1ccc(N2CCCC2)c([N+](=O)[O-])c1`, for which the AC50 was > 30 µM (inactive).

In the case of `Fc1ccc(/C=N/Nc2cc(N3CCOCC3)ncn2)cc1`, the AC50 was > 30 µM (inactive).

In the case of `Nc1cc(C(F)(F)F)ccc1C(=O)O`, the AC50 is > 30 µM (inactive).

Turning to `CC1CC(=O)c2cnc(NCC3CCCO3)nc2C1` (configuration not stated), the AC50 was > 30 µM (inactive).

Regarding `CC1=C(C(=O)Nc2cccc(F)c2)C(c2ccsc2)C2=C(CC(C)(C)CC2=O)N1` (configuration not stated), the AC50 is > 30 µM (inactive).

As for `Cc1nnc(SCC(=O)Nc2ccc(Br)cn2)[nH]c1=O`, the AC50 is 13.7 µM.

In the case of `NC(=O)c1ccsc1NC(=O)COC(=O)Cc1ccsc1`, the AC50 was 28.6 µM.

`CCN1CCN(c2c(Cl)cccc2NC(=O)c2cccs2)CC1`: the AC50 is > 30 µM (inactive).

`COc1ccc(C(=O)c2sc(Nc3ccccc3)c(C(=O)Nc3ccc(OC)c(OC)c3)c2N)cc1`: the AC50 was > 30 µM (inactive).

Regarding `C/C(=N\NC(=O)c1nnn(-c2nonc2N)c1-c1ccccc1)c1cccnc1`, the AC50 is 18.3 µM.

With `NC(=O)CSc1nc(C2CC2)nc2sc3c(c12)CCCC3`, the AC50 is > 30 µM (inactive).

As to `CCSc1ncnc2c1sc1nc3c(cc12)COC(C)(C)C3`, the AC50 was > 30 µM (inactive).

With `CCC(=NCCCO)c1c(O)n(-c2ccc(OC)cc2)c(=O)[nH]c1=O`, the AC50 was > 30 µM (inactive).

`COc1cccc(C2CC(=O)Nc3cc(OC)c(OC)c(OC)c32)c1OC` (configuration not stated): the AC50 is > 30 µM (inactive).

For the compound `S=C(Nc1ccc(Cl)cc1)Nc1cccc2cnccc12`, the AC50 was > 30 µM (inactive).

Take `Cn1cnc(C(=O)NC2CCN(C(=O)OC(C)(C)C)CC2)c1C(=O)NC1CCN(C(=O)OC(C)(C)C)CC1`: the AC50 was > 30 µM (inactive).

Take `COC(=O)CCCCCCCCC(O)CN(C)C` (configuration not stated): the AC50 was > 30 µM (inactive).

With `COc1ccc(OC)c(C2CC(=O)Nc3n[nH]c(-c4ccccc4)c32)c1` (configuration not stated), the AC50 was > 30 µM (inactive).

In the case of `CCOC(=O)c1cc(C)sc1NC(=O)C1CCC1`, the AC50 is > 30 µM (inactive).

In the case of `COc1ccccc1N1CCN(CCC(=O)Nc2cccc(Cl)c2)CC1`, the AC50 is 19.3 µM.

In the case of `O=C(c1ccc2c3n(nc2c1)-c1ccccc1CO3)N1CCOCC1`, the concentration at half-maximal activity (AC50) was 18.8 µM.

As to `O=C1/C(=C/c2ccco2)Oc2c1ccc(O)c2CN1CCCCC1`, the concentration at half-maximal activity (AC50) was 10 µM.

For `O=C1OCCC/C1=C\c1ccc2c(c1)OCO2`, the half-maximal activity concentration (AC50) is 23.3 µM.

With `O=c1[nH]c(=S)n(Cc2ccc(F)cc2)c(O)c1C=NCCCn1ccnc1`, the AC50 was > 30 µM (inactive).

`CCn1c(=O)[nH]c(=O)c2c(N)c(C(=O)c3ccccc3OC)sc21`: the concentration at half-maximal activity (AC50) was 16.8 µM.

Regarding `COc1ccc(-c2cc(C(F)(F)F)nc(SCCC(=O)NCc3ccccc3)n2)cc1`, the AC50 was > 30 µM (inactive).

With `CC(=O)c1sc(NC(=O)c2ccc3c(c2)OCO3)nc1C`, the AC50 is > 30 µM (inactive).

For `O=C(NC(=S)Nc1cccc2cnccc12)c1ccccc1`, the AC50 is > 30 µM (inactive).

`CCCC(NS(=O)(=O)c1ccc(OC)cc1)C(=O)O` (configuration not stated): the AC50 was > 30 µM (inactive).

With `Cc1ccc(S(=O)(=O)Nc2ccc(O)c3ncccc23)cc1`, the AC50 was > 30 µM (inactive).

Take `Cc1ccc(-c2nc3n(n2)Cc2ccccc2-3)cc1`: the AC50 was > 30 µM (inactive).

Consider `COc1ccc2nc(C)cc(N3CCN(S(=O)(=O)c4ccccc4F)CC3)c2c1`, for which the half-maximal activity concentration (AC50) was 8.27 µM.

On to `CC(C)c1c(C(=O)N/N=C/c2cccnc2)nnn1-c1nonc1N`, for which the AC50 was > 30 µM (inactive).

For `CC(C)(C)C(=O)NC(=S)Nc1sc2c(c1C(N)=O)CCC2`, the AC50 is > 30 µM (inactive).

For the compound `O=[N+]([O-])c1ccc(NCCCN2CCOCC2)c(Cl)c1`, the AC50 was > 30 µM (inactive).

Turning to `CC(=O)Nc1cccc(-c2csc(NCc3ccccc3)n2)c1`, the AC50 is > 30 µM (inactive).

With `Cc1nn(-c2ccccc2)c(C)c1/C=C/C(=O)OCC(=O)Nc1ccc(C(N)=O)cc1`, the AC50 is > 30 µM (inactive).

For the compound `CCN1CCN(c2nc(Nc3ccc(C)c(C)c3)nc(N)c2[N+](=O)[O-])CC1`, the AC50 was > 30 µM (inactive).

With `Cc1noc(C)c1COc1ccc2ccc(=O)oc2c1`, the AC50 was > 30 µM (inactive).

Turning to `O=C(O)c1cccc2c1C(=O)c1cc(Br)ccc1S2(=O)=O`, the AC50 is > 30 µM (inactive).

On to `CCOc1ccc(-n2c(O)c(C=NCCCn3ccnc3)c(=O)[nH]c2=O)cc1`, for which the AC50 is 22.4 µM.

As to `COCCCNc1nc2ccccc2[nH]c1=O`, the AC50 is > 30 µM (inactive).

`O=C(CSCc1ccc([N+](=O)[O-])cc1)NN=C1CCCCCC1`: the AC50 is > 30 µM (inactive).

Consider `CCOC(=O)c1cc(-c2ccc(F)cc2)n(CC(=O)NC(C)CC)c1C` (configuration not stated), for which the AC50 is > 30 µM (inactive).

On to `COc1ccccc1CC(=O)N1CCOCC1`, for which the AC50 is > 30 µM (inactive).

In the case of `O=C1/C(=C/c2ccc3c(c2)OCO3)Oc2cc(OCC(=O)N3CC(O)C[C@H]3C(=O)O)ccc21` (some centres not stated), the AC50 was 4.07 µM.

As to `Nn1c(-c2ccc(O)cc2)nnc1-c1ccc(O)cc1`, the AC50 was > 30 µM (inactive).

`COc1cccc(NC(=O)c2nnn(Cc3ccc(Br)cc3F)c2N)c1`: the AC50 is 11.1 µM.

Consider `Cn1cc(C(=O)c2cccc(Cl)c2)cc1/C=N\O`, for which the AC50 is 28.3 µM.

Regarding `Oc1ccc(-c2csc(Nc3cccnc3)n2)cc1`, the AC50 was 10.7 µM.

Consider `O=c1[nH]c(=O)n(C2CCCCC2)c(O)c1C=NCCCn1ccnc1`, for which the AC50 was 4.06 µM.

For `CN1/C(=C\C=C(/C#N)C(=O)Nc2ccccc2F)C(C)(C)c2ccccc21`, the AC50 was > 30 µM (inactive).

On to `N#CC1=C(N)Oc2n[nH]c(-c3cccnc3)c2C1c1cc(F)ccc1F` (configuration not stated), for which the AC50 was > 30 µM (inactive).

Regarding `Nc1nonc1-n1nnc(C(=O)N/N=C/c2ccncc2)c1CSc1ccc(Cl)cc1`, the AC50 was > 30 µM (inactive).

`CCOC(=O)CN1CC23C=CC(O2)C(C(=O)O)C3C1=O` (configuration not stated): the AC50 is > 30 µM (inactive).

On to `CCCNC(=O)Cn1c(-c2ccc(F)cc2)cc(C(=O)OCC)c1C`, for which the AC50 was > 30 µM (inactive).

Consider `Nc1cc(C(=O)O)c(N)c2c1C(=O)c1ccccc1C2=O`, for which the AC50 is 7.46 µM.

For the compound `CC(C)(C)C(=O)/C=c1\[nH]c(=O)/c(=C\c2ccc(F)cc2)s1`, the AC50 is 11.9 µM.

Consider `Cc1ccc(N2C(S)=C(C#N)C(=O)NC2c2ccco2)cc1` (configuration not stated), for which the AC50 was > 30 µM (inactive).

As to `O=C(CCN1CCOCC1)Nc1cccc(Br)c1`, the AC50 was > 30 µM (inactive).

As for `CCc1nnc(NC(=O)CCN2C(=O)c3ccccc3C2=O)s1`, the AC50 was > 30 µM (inactive).
